Key:
Type in all cases: cell-based
[1] = tested on: human peripheral blood mononuclear cells (PBMC); assay: PBMC cytotoxicity assay (CellTiter-Glo); details: cytotoxicity in stimulated PBMC, recorded as pCC50
Procedure: (§1) Compounds of the present invention were tested via high-throughput cellular assays utilizing detection of kynurenine via mass spectrometry and cytotoxicity as end-points. […] Compounds with IDO1 inhibitory properties decreased the amount of kynurenine produced by the cells via the tryptophan catabolic pathway. Cellular toxicity due to the effect of compound treatment was measured using CellTiter-Glo® reagent (CTG) (Promega Corporation, Madison, Wis.), which is based on luminescent detection of ATP, an indicator of metabolically active cells.
(§2) In preparation for the assays, test compounds were serially diluted 3-fold in DMSO from a typical top concentration of 1 mM or 5 mM and plated at 0.5 μL in 384-well, polystyrene, clear bottom, tissue culture treated plates with lids (Greiner Bio-One, Kremsmünster, Austria) to generate 11-point dose response curves. Low control wells (0% kynurenine or 100% cytotoxicity) contained either 0.5 μL of DMSO in the presence of unstimulated (−IFN-γ/−LPS) PBMCs for the mass spectrometry assay or 0.5 μL of DMSO in the absence of cells for the cytotoxicity assay, and high control wells (100% kynurenine or 0% cytotoxicity) contained 0.5 μL of DMSO in the presence of stimulated (+IFN-γ/+LPS) PBMCs for both the mass spectrometry and cytotoxicity assays.
Frozen stocks of PBMCs were washed and recovered in RPMI 1640 medium (Thermo Fisher Scientific, Inc., Waltham, Mass.) supplemented with 10% v/v heat-inactivated fetal bovine serum (FBS) (Thermo Fisher Scientific, Inc., Waltham, Mass.), and 1× penicillin-streptomycin antibiotic solution (Thermo Fisher Scientific, Inc., Waltham, Mass.). The cells were diluted to 1,000,000 cells/mL in the supplemented RPMI 1640 medium. 50 μL of either the cell suspension, for the mass spectrometry assay, or medium alone, for the cytotoxicity assay, were added to the low control wells, on the previously prepared 384-well compound plates, resulting in 50,000 cells/well or 0 cells/well respectively. IFN-γ and LPS were added to the remaining cell suspension at final concentrations of 100 ng/ml and 50 ng/ml respectively, and 50 μL of the stimulated cells were added to all remaining wells on the 384-well compound plates. The plates, with lids, were then placed in a 37° C., 5% CO2 humidified incubator for 2 days.
(§3) Following incubation, the 384-well plates were removed from the incubator and allowed to equilibrate to room temperature for 30 minutes. For the cytotoxicity assay, CellTiter-Glo® was prepared according to the manufacturer's instructions, and 40 μL were added to each plate well. After a twenty minute incubation at room temperature, luminescence was read on an EnVision® Multilabel Reader (PerkinElmer Inc., Waltham, Mass.). For the mass spectrometry assay, 10 μL of supernatant from each well of the compound-treated plates were added to 40 μL of acetonitrile, containing 10 μM of an internal standard for normalization, in 384-well, polypropylene, V-bottom plates (Greiner Bio-One, Kremsmünster, Austria) to extract the organic analytes. Following centrifugation at 2000 rpm for 10 minutes, 10 μL from each well of the acetonitrile extraction plates were added to 90 μL of sterile, distilled H2O in 384-well, polypropylene, V-bottom plates for analysis of kynurenine and the internal standard on the RapidFire 300 (Agilent Technologies, Santa Clara, Calif.) and 4000 QTRAP MS (SCIEX, Framingham, Mass.). MS data were integrated using Agilent Technologies' RapidFire Integrator software, and data were normalized for analysis as a ratio of kynurenine to the internal standard.

[2] = target: indoleamine 2, 3-dioxygenase (IDO1) (Homo sapiens, UniProt P14902); assay: IDO1 HeLa RapidFire MS Assay (kynurenine by mass spectrometry); details: HeLa cells stimulated with IFN-γ, 2 days; recorded as pIC50; read-out: IDO1 HeLa PXC50 (converted)
Chain of indoleamine 2, 3-dioxygenase (IDO1) (P14902 whole entry): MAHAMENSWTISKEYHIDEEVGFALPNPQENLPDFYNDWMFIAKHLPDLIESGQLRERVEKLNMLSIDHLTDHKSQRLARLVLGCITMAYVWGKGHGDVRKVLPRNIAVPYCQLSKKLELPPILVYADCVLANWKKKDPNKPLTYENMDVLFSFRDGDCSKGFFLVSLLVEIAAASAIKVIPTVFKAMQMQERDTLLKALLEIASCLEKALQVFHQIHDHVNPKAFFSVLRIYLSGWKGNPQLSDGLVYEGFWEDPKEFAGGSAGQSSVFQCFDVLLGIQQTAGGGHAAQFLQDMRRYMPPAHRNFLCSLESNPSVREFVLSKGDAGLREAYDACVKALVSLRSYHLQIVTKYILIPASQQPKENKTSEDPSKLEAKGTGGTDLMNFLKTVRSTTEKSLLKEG
Procedure: IDO1 HeLa RapidFire MS Assay
as §1
as §2, with “(−IFN-γ) HeLa cells” for “(−IFN-γ/−LPS) PBMCs”, “(+IFN-γ) HeLa cells” for “(+IFN-γ/+LPS) PBMCs”
(§4) Frozen stocks of HeLa cells were washed and recovered in DMEM high glucose medium with HEPES (Thermo Fisher Scientific, Inc., Waltham, Mass.) supplemented with 10% v/v certified fetal bovine serum (FBS) (Thermo Fisher Scientific, Inc., Waltham, Mass.), and 1× penicillin-streptomycin antibiotic solution (Thermo Fisher Scientific, Inc., Waltham, Mass.). The cells were diluted to 100,000 cells/mL in the supplemented DMEM medium. 50 μL of either the cell suspension, for the mass spectrometry assay, or medium alone, for the cytotoxicity assay, were added to the low control wells, on the previously prepared 384-well compound plates, resulting in 5,000 cells/well or 0 cells/well respectively. IFN-γ was added to the remaining cell suspension at a final concentration of 10 nM, and 50 μL of the stimulated cells were added to all remaining wells on the 384-well compound plates. The plates, with lids, were then placed in a 37° C., 5% CO2 humidified incubator for 2 days.
as §3, with “instructions, and 10 μL were” for “instructions, and 40 μL were”

[3] = tested on: human epithelial HeLa cells; assay: HeLa cytotoxicity assay (CellTiter-Glo); details: cytotoxicity in stimulated HeLa cells, recorded as pCC50
Procedure: as §1
as §2, with “(−IFN-γ) HeLa cells” for “(−IFN-γ/−LPS) PBMCs”, “(+IFN-γ) HeLa cells” for “(+IFN-γ/+LPS) PBMCs”
as §4
as §3, with “instructions, and 10 μL were” for “instructions, and 40 μL were”

Question: For CC(C)CN(c1ncc(-c2ccccc2C(=O)O)cc1Nc1nc(C(F)(F)F)ns1)C1CCOCC1 [Example 29, 2-(6-(isobutyl(tetrahydro-2H-pyran-4-yl)amino)-5-((3-(trifluoromethyl)-1,2,4-thiadiazol-5-yl)amino)pyridin-3-yl)benzoic acid], which “PBMC_TOX PXC50” value [1] is on record?
Answer: Its value is less than 5.0.

Question: What about the IC50 [2] of the same compound?
Answer: Its IC50 is 15.8 nM.

Question: And the HELA_IDO1_TOX_PXC50 [3]?
Answer: Its HELA_IDO1_TOX_PXC50 is less than 5.

Question: With CC(C)CN(c1ncc([C@H](C)CC(=O)O)cc1Nc1nc(Cl)ns1)C1CCC(F)(F)CC1 [Example 30, (R)-3-(5-((3-chloro-1,2,4-thiadiazol-5-yl)amino)-6-((4,4-difluorocyclohexyl)(isobutyl)amino)pyridin-3-yl)butanoic acid] as the compound, how does the “PBMC_TOX PXC50” value [1] read?
Answer: Its value is less than 5.0.

Question: And the IC50 [2]?
Answer: The IC50 was 39.8 nM.

Question: What about the HELA_IDO1_TOX_PXC50 [3] of the same compound?
Answer: The HELA_IDO1_TOX_PXC50 was less than 5.

Question: What does the source list for C[C@H](CC(=O)O)c1cnc(N(CCCCCNC(=O)OC2CC/C=C/CCC2)C2CCOCC2)c(Nc2ccc(Cl)cn2)c1 (stereo partly drawn) [Example 84, (3R)-3-{5-[(5-chloropyridin-2-yl)amino]-6-{[5-({[(4E)-cyclooct-4-en-1-yloxy]carbonyl}amino)pentyl](oxan-4-yl)amino}pyridin-3-yl}butanoic acid]?
Answer: PBMC_TOX PXC50 [1]: <5.0; IC50 [2]: 10 nM; HELA_IDO1_TOX_PXC50 [3]: <5

Question: For COCc1nsc(Nc2cc([C@H](C)CC(=O)O)cnc2N(CC(C)C)C2CCCCC2)n1 [Example 15, (R)-3-(6-(cyclohexyl(isobutyl)amino)-5-((3-(methoxymethyl)-1,2,4-thiadiazol-5-yl)amino)pyridin-3-yl)butanoic acid], which “PBMC_TOX PXC50” value [1] is on record?
Answer: Its value is less than 5.5.

Question: COCc1nnc(Nc2cc([C@H](C)CC(=O)O)cnc2N(CC(C)C)C2CCOCC2)s1 [Example 49, (3R)-3-(5-{[5-(methoxymethyl)-1,3,4-thiadiazol-2-yl]amino}-6-[(2-methylpropyl)(oxan-4-yl)amino]pyridin-3-yl)butanoic acid] was tested. Which “PBMC_TOX PXC50” value [1] did it give?
Answer: The value was less than 5.0.

Question: For CO[C@H]1CC[C@@H](N(CC(C)C)c2ncc([C@H](C)CC(=O)O)cc2Nc2ccc(Cl)cn2)CC1 [Example 24, (R)-3-(5-((5-chloropyridin-2-yl)amino)-6-(isobutyl((1s,4S)-4-methoxycyclohexyl)amino)pyridin-3-yl)butanoic acid], which “PBMC_TOX PXC50” value [1] is on record?
Answer: Its value is less than 5.0.

Question: How did the “PBMC_TOX PXC50” value [1] turn out when CC(C)CN(CC(C)C)c1nnc(C(C)CC(=O)O)cc1Nc1nc(C(F)(F)F)ns1 (stereo not drawn) [Example 72, 3-{6-[bis(2-methylpropyl)amino]-5-{[3-(trifluoromethyl)-1,2,4-thiadiazol-5-yl]amino}pyridazin-3-yl}butanoic acid] was run?
Answer: Its value is less than 5.0.

Question: For CC(C)CN(c1ncc([C@H](C)CC(=O)O)cc1Nc1n[nH]c(C#N)n1)C1CCOCC1 [Example 43, (3R)-3-{5-[(5-cyano-1H-1,2,4-triazol-3-yl)amino]-6-[(2-methylpropyl)(oxan-4-yl)amino]pyridin-3-yl}butanoic acid], which “PBMC_TOX PXC50” value [1] is on record?
Answer: Its value is less than 5.0.

Question: Which “PBMC_TOX PXC50” value [1] does the source give for COC1CCC(N(CC(C)C)c2ncc(C(C)CC(=O)O)cc2Nc2ccc(C#N)cn2)CC1 (stereo not drawn) [Example 53, (3RS)-3-{5-[(5-cyanopyridin-2-yl)amino]-6-[(2-methylpropyl)[(1rs&,4rs&)-4-methoxycyclohexyl]amino]pyridin-3-yl}butanoic acid] here?
Answer: Its value is less than 5.0.

Question: Which “PBMC_TOX PXC50” value [1] does the source give for CO[C@H]1CC[C@@H](N(CC(C)C)c2ncc([C@H](C)CC(=O)O)cc2Nc2nc(C(F)(F)F)ns2)CC1 [Example 22, (R)-3-(6-(isobutyl((1s,4S)-4-methoxycyclohexyl)amino)-5-((3-(trifluoromethyl)-1,2,4-thiadiazol-5-yl)amino)pyridin-3-yl) butanoic acid] here?
Answer: The value was less than 5.4.

Question: With CC(C)CN(c1ncc([C@H](C)CC(=O)O)cc1Nc1ccc(C(F)(F)F)nn1)C1CCOCC1 [Example 66, (3R)-3-{6-[(2-methylpropyl)(oxan-4-yl)amino]-5-{[6-(trifluoromethyl)pyridazin-3-yl]amino}pyridin-3-yl}butanoic acid] as the compound, how does the “PBMC_TOX PXC50” value [1] read?
Answer: Its value is less than 5.0.

Question: For CC(C)CN(c1ncc([C@H](C)CC(=O)O)cc1Nc1ccc(Cl)cn1)C1CCCCC1 [Example 13, (R)-3-(5-((5-chloropyridin-2-yl)amino)-6-(cyclohexyl(isobutyl)amino)pyridin-3-yl)butanoic acid], which “PBMC_TOX PXC50” value [1] is on record?
Answer: Its value is less than 5.0.

Question: For CC(C)CN(c1ncc(C(C)CC(=O)O)cc1Nc1nc(C(F)(F)F)ns1)C1CCC(O)CC1 (stereo not drawn) [Example 59, (3RS)-3-{6-[(2-methylpropyl)[(1rs&,4rs&)-4-hydroxycyclohexyl]amino]-5-{[3-(trifluoromethyl)-1,2,4-thiadiazol-5-yl]amino}pyridin-3-yl}butanoic acid], which “PBMC_TOX PXC50” value [1] is on record?
Answer: Its value is less than 5.0.

Question: For CC(C)CN(CC(F)F)c1ncc([C@H](C)CC(=O)O)cc1Nc1ccc(Cl)cn1 [Example 71, (3R)-3-{5-[(5-chloropyridin-2-yl)amino]-6-[(2,2-difluoroethyl)(2-methylpropyl)amino]pyridin-3-yl}butanoic acid], which “PBMC_TOX PXC50” value [1] is on record?
Answer: Its value is less than 5.0.

Question: With CC(C)CN(c1ncc(C(C)CC(=O)O)cc1Nc1nnc(C2CC2)s1)C1CCOCC1 (stereo not drawn) [Example 36, 3-{5-[(5-cyclopropyl-1,3,4-thiadiazol-2-yl)amino]-6-[(2-methylpropyl)(oxan-4-yl)amino]pyridin-3-yl}butanoic acid] as the compound, how does the “PBMC_TOX PXC50” value [1] read?
Answer: Its value is less than 5.0.

Question: What about the IC50 [2] of the same compound?
Answer: The IC50 was 7.94 nM.

Question: With Cc1nsc(Nc2cc([C@H](C)CC(=O)O)cnc2N(CC(C)C)C2CCCCC2)n1 [Example 16, (R)-3-(6-(cyclohexyl(isobutyl)amino)-5-((3-methyl-1,2,4-thiadiazol-5-yl)amino)pyridin-3-yl)butanoic acid] as the compound, how does the “PBMC_TOX PXC50” value [1] read?
Answer: The value was less than 5.2.

Question: How did the “PBMC_TOX PXC50” value [1] turn out when COC(=O)c1c[nH]c(Nc2cc([C@H](C)CC(=O)O)cnc2N(CC(C)C)C2CCOCC2)n1 [Example 50, (3R)-3-(5-{[4-(methoxycarbonyl)-1H-imidazol-2-yl]amino}-6-[(2-methylpropyl)(oxan-4-yl)amino]pyridin-3-yl)butanoic acid] was run?
Answer: Its value is less than 5.0.

— US10787442B2, “Modulators of indoleamine 2,3-dioxygenase” (GLAXOSMITHKLINE INTELLECTUAL PROPERTY DEVELOPMENT LIMITED, priority 2016, dated 2020)
